Measured values: patent publication US20240393292A1, “ALLERGY ANTIGEN AND EPITOPE THEREOF” (HOYU CO., LTD., priority 2019, published 2024)

Tested on: IgE antibodies from patients
Experiment: Wheat epitope mapping (2): overlapping 10-amino-acid peptide fragments shifted by one amino acid
Assay type: binding, human
Conditions: sequence without X; for Epitope sequence binding to IgE antibody, rank of the sequence (Key/Preferably/More preferably/Further preferably): serum of patient P2 (WDEIA)
Method: The peptides to be synthesized were shifted by one amino acid.
The library was prepared by the same procedure as described above in (A), and the presence or absence of binding of an IgE antibody present in the serum of a patient to each peptide fragment was measured by the same technique as described above. Numeric values determined from images obtained as a result of carrying out only the procedures (1) and (4) to (6) described above in the subsection titled (3) Spotting of cellulose-bound peptide solution were used as control values. The control value of each peptide was subtracted from numeric values determined from images obtained from results about the serum of patients, and the obtained value of the difference was compared with values of the peptides serving as the basis of overlapping.
Chemiluminescence intensity in images obtained by measurement was converted into a numeric value in the same manner as in (A). Numeric values determined from images obtained as a result of carrying out only the procedures (1) and (4) to (6) described above in the subsection titled (3) Spotting of cellulose-bound peptide solution (secondary antibody measurement values) were used as control values. The control value of each peptide was subtracted from numeric values determined from images obtained from results about the serum of patients. When values obtained using the sequences (SEQ ID NOs: 29, 131, 191, 281, 346, 414, 493, 562, 640, 706, 776, 899, 974, 1010, 1089, 1142, 1166, 1209, 1257, 1297, 1367, 1403, 1508, 1566, 1598, 1608, 1685, 1753, 1789, 1836, 1895, 1977, 2004, 2027, 2068, 2154, 2217, 2265, 2309, 2342, 2419, 2491, 2545, 2613, 2631, 2674, 2701, 2774, 2809 and 2830) serving as the basis of overlapping were defined as 100%, it was determined that: a peptide having a value of the difference that was less than 30% had no binding activity against IgE antibodies; a peptide having a value of the difference that was 30% or more and less than 50% had binding activity, albeit poor, against IgE antibodies; a peptide having a value of the difference that was 50% or more and less than 70% had binding activity, albeit somewhat poor, against IgE antibodies; and a peptide having a value of the difference that was 70% or more had equivalent or good binding activity against IgE antibodies and was thus a peptide had remaining binding activity against IgE antibodies.

In the case of “1162 (SIDQNAQG; REGION 1..8: note = epitope) [compound 1162]”, the “Epitope sequence binding to IgE antibody, rank of the sequence” value (serum of patient G7 (adult, general immediate type allergy to wheat)) is reported as “Further preferably”.

“1168 (PGQQQQFPPQ; REGION 1..10: note = epitope) [compound 1168]” was tested, and the “Epitope sequence binding to IgE antibody, rank of the sequence” value (serum of patient P3 (WDEIA)) was “Preferably”.

For “1170 (FPPQQP; REGION 1..6: note = epitope) [compound 1170]”, the “Epitope sequence binding to IgE antibody, rank of the sequence” value (serum of patient P3 (WDEIA)) was “Key”.

In the case of “1173 (QQQQFPPQQP; REGION 1..10: note = epitope) [compound 1173]”, the “Epitope sequence binding to IgE antibody, rank of the sequence” value (serum of patient P7 (WDEIA)) is reported as “Preferably”.

With “1176 (QQFPPQQ; REGION 1..7: note = epitope) [compound 1176]” the “Epitope sequence binding to IgE antibody, rank of the sequence” value (serum of patient P8 (WDEIA)) was “Preferably”.

“1177 (QQFPPQ; REGION 1..6: note = epitope) [compound 1177]” was tested, and the “Epitope sequence binding to IgE antibody, rank of the sequence” value (serum of patient P8 (WDEIA)) was “Key”.

With “1179 (QQFPPQQ; REGION 1..7: note = epitope) [compound 1179]” the “Epitope sequence binding to IgE antibody, rank of the sequence” value (serum of patient P12 (WDEIA)) was “Preferably”.

“1180 (QQFPP; REGION 1..5: note = epitope) [compound 1180]” was tested, and the “Epitope sequence binding to IgE antibody, rank of the sequence” value (serum of patient P12 (WDEIA)) was “Key”.

“1183 (QQFPPQQ; REGION 1..7: note = epitope) [compound 1183]” was tested, and the “Epitope sequence binding to IgE antibody, rank of the sequence” value (serum of patient P14 (WDEIA)) was “Key”.

With “1185 (QQFPPQQP; REGION 1..8: note = epitope) [compound 1185]” the “Epitope sequence binding to IgE antibody, rank of the sequence” value (serum of patient P19 (WDEIA)) was “Key”.

“1188 (QQFPPQQ; REGION 1..7: note = epitope) [compound 1188]” was tested, and the “Epitope sequence binding to IgE antibody, rank of the sequence” value (serum of patient P21 (WDEIA)) was “Preferably”.

For “1189 (QQFPPQ; REGION 1..6: note = epitope) [compound 1189]”, the “Epitope sequence binding to IgE antibody, rank of the sequence” value (serum of patient P21 (WDEIA)) was “Key”.

“1190 (QQFPPQQPYP; REGION 1..10: note = epitope) [compound 1190]” was tested, and the “Epitope sequence binding to IgE antibody, rank of the sequence” value (serum of patient P21 (WDEIA)) was “Key”.

For “1194 (QQQQFPPQ; REGION 1..8: note = epitope) [compound 1194]”, the “Epitope sequence binding to IgE antibody, rank of the sequence” value (serum of patient P22 (WDEIA)) was “Key”.

With “1195 (QFPPQQPYPQ; REGION 1..10: note = epitope) [compound 1195]” the “Epitope sequence binding to IgE antibody, rank of the sequence” value (serum of patient P22 (WDEIA)) was “Key”.

“1200 (QQFPGQQQQ; REGION 1..9: note = epitope) [compound 1200]” was tested, and the “Epitope sequence binding to IgE antibody, rank of the sequence” value (serum of patient P28 (WDEIA)) was “Key”.

“1206 (QQFPPQQP; REGION 1..8: note = epitope) [compound 1206]” was tested, and the “Epitope sequence binding to IgE antibody, rank of the sequence” value (serum of patient P34 (WDEIA)) was “Preferably”.

“1207 (FPPQQ; REGION 1..5: note = epitope) [compound 1207]” was tested, and the “Epitope sequence binding to IgE antibody, rank of the sequence” value (serum of patient P34 (WDEIA)) was “Key”.

With “1208 (QQFPPQQ; REGION 1..7: note = epitope) [compound 1208]” the “Epitope sequence binding to IgE antibody, rank of the sequence” value (serum of patient P35 (WDEIA)) was “Key”.

“1210 (PIQQQP; REGION 1..6: note = epitope) [compound 1210]” was tested, and the “Epitope sequence binding to IgE antibody, rank of the sequence (Key/Preferably/More preferably/Further preferably)” value was “Preferably”.

In the case of “1213 (PIQQQPQPFP; REGION 1..10: note = epitope) [compound 1213]”, the “Epitope sequence binding to IgE antibody, rank of the sequence” value (serum of patient P7 (WDEIA)) is reported as “Preferably”.

For “1216 (PQQPP; REGION 1..5: note = epitope) [compound 1216]”, the “Epitope sequence binding to IgE antibody, rank of the sequence” value (serum of patient P7 (WDEIA)) was “Preferably”.

In the case of “1218 (PIQQQP; REGION 1..6: note = epitope) [compound 1218]”, the “Epitope sequence binding to IgE antibody, rank of the sequence” value (serum of patient P9 (WDEIA)) is reported as “Preferably”.

For “1220 (IQQQP; REGION 1..5: note = epitope) [compound 1220]”, the “Epitope sequence binding to IgE antibody, rank of the sequence” value (serum of patient P9 (WDEIA)) was “Key”.

With “1221 (PIQQQPQPF; REGION 1..9: note = epitope) [compound 1221]” the “Epitope sequence binding to IgE antibody, rank of the sequence” value (serum of patient P10 (WDEIA)) was “Preferably”.

With “1223 (IQQQP; REGION 1..5: note = epitope) [compound 1223]” the “Epitope sequence binding to IgE antibody, rank of the sequence” value (serum of patient P10 (WDEIA)) was “Key”.

For “1225 (QQPIQQQP; REGION 1..8: note = epitope) [compound 1225]”, the “Epitope sequence binding to IgE antibody, rank of the sequence” value (serum of patient P12 (WDEIA)) was “Preferably”.

In the case of “1226 (PIQQQP; REGION 1..6: note = epitope) [compound 1226]”, the “Epitope sequence binding to IgE antibody, rank of the sequence” value (serum of patient P12 (WDEIA)) is reported as “Key”.

“1227 (PQQPPC; REGION 1..6: note = epitope) [compound 1227]” was tested, and the “Epitope sequence binding to IgE antibody, rank of the sequence” value (serum of patient P12 (WDEIA)) was “Key”.

“1229 (PIQQQP; REGION 1..6: note = epitope) [compound 1229]” was tested, and the “Epitope sequence binding to IgE antibody, rank of the sequence” value (serum of patient P13 (WDEIA)) was “Preferably”.

With “1231 (PQQPP; REGION 1..5: note = epitope) [compound 1231]” the “Epitope sequence binding to IgE antibody, rank of the sequence” value (serum of patient P13 (WDEIA)) was “Key”.

“1234 (PQQPP; REGION 1..5: note = epitope) [compound 1234]” was tested, and the “Epitope sequence binding to IgE antibody, rank of the sequence” value (serum of patient P14 (WDEIA)) was “Key”.

For “1235 (PQQPP; REGION 1..5: note = epitope) [compound 1235]”, the “Epitope sequence binding to IgE antibody, rank of the sequence” value (serum of patient P17 (WDEIA)) was “Key”.

“1236 (PQQPP; REGION 1..5: note = epitope) [compound 1236]” was tested, and the “Epitope sequence binding to IgE antibody, rank of the sequence” value (serum of patient P21 (WDEIA)) was “Key”.

With “1239 (QQQPIQQQP; REGION 1..9: note = epitope) [compound 1239]” the “Epitope sequence binding to IgE antibody, rank of the sequence” value (serum of patient P24 (WDEIA)) was “Preferably”.

“1241 (PIQQQP; REGION 1..6: note = epitope) [compound 1241]” was tested, and the “Epitope sequence binding to IgE antibody, rank of the sequence” value (serum of patient P26 (WDEIA)) was “Key”.

With “1242 (PQQPPC; REGION 1..6: note = epitope) [compound 1242]” the “Epitope sequence binding to IgE antibody, rank of the sequence” value (serum of patient P26 (WDEIA)) was “Preferably”.

With “1243 (PQQPP; REGION 1..5: note = epitope) [compound 1243]” the “Epitope sequence binding to IgE antibody, rank of the sequence” value (serum of patient P26 (WDEIA)) was “Key”.

In the case of “1244 (PIQQQP; REGION 1..6: note = epitope) [compound 1244]”, the “Epitope sequence binding to IgE antibody, rank of the sequence” value (serum of patient P31 (WDEIA)) is reported as “Key”.

With “1245 (PQQPPC; REGION 1..6: note = epitope) [compound 1245]” the “Epitope sequence binding to IgE antibody, rank of the sequence” value (serum of patient P31 (WDEIA)) was “Preferably”.

With “1246 (PQQPP; REGION 1..5: note = epitope) [compound 1246]” the “Epitope sequence binding to IgE antibody, rank of the sequence” value (serum of patient P31 (WDEIA)) was “Key”.

“1247 (PIQQQP; REGION 1..6: note = epitope) [compound 1247]” was tested, and the “Epitope sequence binding to IgE antibody, rank of the sequence” value (serum of patient P32 (WDEIA)) was “Key”.

In the case of “1248 (PQQPP; REGION 1..5: note = epitope) [compound 1248]”, the “Epitope sequence binding to IgE antibody, rank of the sequence” value (serum of patient P32 (WDEIA)) is reported as “Key”.

In the case of “1249 (QQPIQQQP; REGION 1..8: note = epitope) [compound 1249]”, the “Epitope sequence binding to IgE antibody, rank of the sequence” value (serum of patient P33 (WDEIA)) is reported as “Key”.

“1250 (PQQPP; REGION 1..5: note = epitope) [compound 1250]” was tested, and the “Epitope sequence binding to IgE antibody, rank of the sequence” value (serum of patient P33 (WDEIA)) was “Key”.

For “1252 (PQQPP; REGION 1..5: note = epitope) [compound 1252]”, the “Epitope sequence binding to IgE antibody, rank of the sequence” value (serum of patient P35 (WDEIA)) was “Key”.

“1253 (PIQQQPQPFP; REGION 1..10: note = epitope) [compound 1253]” was tested, and the “Epitope sequence binding to IgE antibody, rank of the sequence” value (serum of patient P36 (WDEIA)) was “Preferably”.

“1254 (PIQQQP; REGION 1..6: note = epitope) [compound 1254]” was tested, and the “Epitope sequence binding to IgE antibody, rank of the sequence” value (serum of patient P36 (WDEIA)) was “Key”.

In the case of “1255 (PQQPPC; REGION 1..6: note = epitope) [compound 1255]”, the “Epitope sequence binding to IgE antibody, rank of the sequence” value (serum of patient P36 (WDEIA)) is reported as “Preferably”.

With “1256 (PQQPP; REGION 1..5: note = epitope) [compound 1256]” the “Epitope sequence binding to IgE antibody, rank of the sequence” value (serum of patient P36 (WDEIA)) was “Key”.

With “1259 (LPRS; REGION 1..4: note = epitope) [compound 1259]” the “Epitope sequence binding to IgE antibody, rank of the sequence (Key/Preferably/More preferably/Further preferably)” value was “Key”.

With “1269 (LPRS; REGION 1..4: note = epitope) [compound 1269]” the “Epitope sequence binding to IgE antibody, rank of the sequence” value (serum of patient P20 (WDEIA)) was “Key”.

With “1277 (LPRS; REGION 1..4: note = epitope) [compound 1277]” the “Epitope sequence binding to IgE antibody, rank of the sequence” value (serum of patient P29 (WDEIA)) was “Key”.

In the case of “1282 (LPRS; REGION 1..4: note = epitope) [compound 1282]”, the “Epitope sequence binding to IgE antibody, rank of the sequence” value (serum of patient P33 (WDEIA)) is reported as “Key”.
